Assay results reported in patent US20240123079A1 (Seagen Inc., priority 2021, published 2024).
pEC50, pIC50: −log10 of the molar value.

Experiments:
[1] = test system: Renca cancer cells; assay: Renca tumor model, in vivo anti-tumor activity and weight change; settings: for anti-tumor activity / tumor growth delay: Renca tumor-bearing Balb/c mice
Protocol: In some experiments, Renca tumor cells were engineered to express the indicated murine or human target antigen.
When tumor volumes reached 100 mm^3, the mice were dosed with either compounds or ADCs by intraperitoneal or intravenous injection at the indicated dosing schedule and tumor volumes were monitored twice weekly. Compounds were formulated in 40% PEG400 in saline.
A syngeneic system was used to assess the ability of the STING agonist ADCs to induce immune responses in vivo and drive an anti-tumor immune response. The Renca system is a subcutaneous, mouse renal adenocarcinoma model. Female Balb/c mice were implanted with 2×10^6 Renca cells subcutaneously in the flank on day 0. When mean tumor size of 100 mm^3 (measured by using the formula Volume (mm^3)=0.5*Length*Width^2 where length is the longer dimension) was reached mice were randomized into treatment groups of ≥5 mice per group. Animals were then treated intraperitoneally (ADCs or compounds) or intravenously (compounds) with the indicated treatment every 7 days, for 3 doses total (or as indicated). Tumor length and width and the weight of the animals was measured throughout the study and tumor volume was calculated using the formula above. Animals were followed until the tumor volume reached ˜1000 mm^3; animals were then euthanized.

[2] = test system: DEL; assay: Cancer cell direct cytotoxicity assay (CellTiter-Glo), DEL; type: cell-based; settings: Homo sapiens, 96 h, free compound, read-out: Compound X50
Protocol: (§1) Bystander activity of ADCs was evaluated using Renca cancer cells and THP1-Dual™ cells (InvivoGen) which contain an IRF-Lucia luciferase reporter. Cells were cultured in RPMI-1640 (Gibco) with 10% heat-inactivated fetal bovine serum, Pen-Strep (100 U/ml-100 μg/ml, Gibco), HEPES (10 mM, Gibco), sodium pyruvate (1 mM, Gibco), MEM non-essential amino acids (1×, Gibco), GlutaMAX (1×, Gibco), and beta-mercaptoethanol (55 μM, Gibco). Renca cells were plated in a 96-well flat bottom tissue culture-treated clear polystyrene plate (Corning Costar #3596) at 50,000 cells per well in 100 μL. On the day following the initial plating, 50,000 THP1-Dual™ cells were added to each well with the indicated concentration of ADC in a total volume of 200 μL. Supernatant was harvested at 48 hours post addition of the THP1-Dual™ cells. To measure Lucia reporter signal, 10 μL of supernatant was combined with 40 μL of QUANTI-Luc™ Luminescence assay reagent (Invivogen PN: rep-qlc1) in a 96-well clear flat bottom tissue culture-treated black polystyrene plate (Corning Costar PN: 3603) and read on a Perkin Elmer Envision plate reader. In some experiments, HEK 293T cells engineered to express a murine protein typically expressed by immune cells (target antigen C— an immune cell antigen) were plated as above instead of Renca tumor cells. Cancer Cell Direct Cytotoxicity Assay
(§2) Cancer cells were counted and plated in 40 μL complete growth media in 384-well, white-walled tissue culture treated plates (Corning). Cell plates were incubated at 37° C. and with 5% CO2 overnight to allow the cells to equilibrate. Stock solutions containing ADCs or free drugs were serially diluted in RPMI-1640+20% fetal bovine serum (FBS). 10 μL of each concentration were then added to each cell plate in duplicate. Cells were then incubated at 37° C. and with 5% CO2 for 96 hours, upon which, the cell plates were removed from the incubator and allowed to cool to room temperature for 30 minutes prior to analysis. […] The luminescence of the samples was measured using an EnVision Multimode plate reader (Perkin Elmer, Waltham, MA). […]

[3] = test system: THP1-Dual™ reporter cells; assay: THP1-Dual cell reporter assay (IRF-Lucia luciferase reporter); type: cell-based, human; settings: for pEC50: Homo sapiens, THP1-Dual, free compounds, 24 h, Lucia reporter signal, read-out: EC50; for potency relative to other free compound: free drug
How it was run: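 THP1-Dual monocytic cells (~100,000/well) were exposed to compound for 24 h (ADCs 48 h). Secreted IRF-driven Lucia luciferase in the supernatant was quantified by QUANTI-Luc luminescence.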

[4] = test system: SU-DHL-4; assay: Cancer cell direct cytotoxicity assay (CellTiter-Glo), SU-DHL-4; type: cell-based; settings: Homo sapiens; SU-DHL-4, 96 h, free compound; read-out: Compound X50
Protocol: as §1, §2

Row | SMILES | anti-tumor activity / tumor growth delay ([1]; q7dx3) | tolerability ([1]; Renca tumor-bearing mice) | average weight loss after the 1st and 2nd dose ([1]; Renca tumor-bearing mice, q7dx3) | pIC50 [2] | pEC50 [3] | potency relative to other free compound [3] | pIC50 [4]
1 | CCn1nc(C)cc1C(=O)Nc1nc2cc(C(N)=O)cc(O)c2n1C/C=C/Cn1c(NC(=O)c2cc(C)nn2CC)nc2cc(C(N)=O)cc(OC)c21 [Compound 1, (E)-1-(4-(5-carbamoyl-2-(1-ethyl-3-methyl-1H-pyrazole-5-carboxamido)-7-hydroxy-1H-benzo[d]imidazol-1-yl)but-2-en-1-yl)-2-(1-ethyl-3-methyl-1H-pyrazole-5-carboxamido)-7-methoxy-1H-benzo[d]imidazole-5-carboxamide] | some tumor growth delay | well tolerated | < 5% | 8.70 | 8.30 | significantly more potent | < 6.00
2 | CCn1nc(C)cc1C(=O)Nc1nc2cc(C(N)=O)cc(OC)c2n1C/C=C/Cn1c(NC(=O)c2cc(C)nn2CC)nc2cc(C(N)=O)cc(OCCCNC)c21 [Compound 12a] | limited anti-tumor efficacy |  |  | 8.52 | 7.68 | less potent than compound 1 and compound A | < 6.00
